In patent publication US10308637B2 (LifeSci Pharmaceuticals, Inc., priority 2015, dated 2019):

Assay: Contact Assay (percentage inhibition from fluorescence intensity)
Format: biochemical
Protocol: The percentage inhibition was calculated using the following equation:
[formula] where, Mean(BG) is the average value of the fluorescence intensity of the background wells and Mean(PC) is the average value of the fluorescence intensity of the positive control wells.
Table 4 provides the EC50 values of various compounds disclosed herein.

Nc1nccc2cc(CNC(=O)c3ccnc(Cc4ccc5ncc(Cl)cc5c4)c3)ccc12 [Example 179, N-((1-aminoisoquinolin-6-yl)methyl)-2-((3-chloroquinolin-6-yl)methyl)isonicotinamide] gave an EC50 of at most 0.1 µM.

For Cc1nc(N)ccc1CNC(=O)c1ccnc(Cc2cc(S(N)(=O)=O)c3ncc(Cl)cc3c2)c1 [Example 236], the EC50 was at most 0.1 µM.

Molecule Cc1cc(N)nc(C)c1CNC(=O)c1ccnc(Cc2cc3cc(Cl)cn3cn2)c1 [Example 153, N-((6-amino-2,4-dimethylpyridin-3-yl)methyl)-2-((6-chloropyrrolo[1,2-c]pyrimidin-3-yl)methyl)isonicotinamide] has an EC50 of at most 0.1 µM.

Molecule Cc1cnc2c(S(C)(=O)=O)cc(Cc3cc(C(=O)NCc4n[nH]c5ccc(Cl)cc45)ccn3)cc2c1 [Example 20, N-((5-chloro-1H-indazol-3-yl)methyl)-2-((3-methyl-8-(methylsulfonyl)quinolin-6-yl)methyl)isonicotinamide] has an EC50 of at most 0.1 µM.

Cc1cc(N)nc(C)c1CNC(=O)c1ccnc(C(O)c2ccc3ncc(Cl)cc3c2)c1 (stereo not drawn) [Example 275, N-((6-amino-2,4-dimethylpyridin-3-yl)methyl)-2-((3-chloroquinolin-6-yl)(hydroxy)methyl)isonicotinamide] showed an EC50 of 0.1 to 1 µM.

With O=C(NCc1ccc2[nH]cc(Cl)c2c1F)c1ccnc(Cc2ccc3ncc(C4CC4)cc3c2)c1 [Example 248, N-((3-chloro-4-fluoro-1H-indol-5-yl)methyl)-2-((3-cyclopropylquinolin-6-yl)methyl)isonicotinamide] the EC50 was 0.1 to 1 µM.

For Cc1cc2cc(Cc3cc(C(=O)NCc4c(C)cc(N)nc4C)ccn3)ccc2cn1 [Example 145, N-((6-amino-2,4-dimethylpyridin-3-yl)methyl)-2-((3-methylisoquinolin-6-yl)methyl)isonicotinamide], the EC50 was at most 0.1 µM.

Cc1cc(N)nc(C)c1CNC(=O)c1ccnc(Cc2cc(C(=O)O)c3ncc(Cl)cc3c2)c1 [Example 93, 6-((4-(((6-amino-2,4-dimethylpyridin-3-yl)methyl)carbamoyl)pyridin-2-yl)methyl)-3-chloroquinoline-8-carboxylic acid] gave an EC50 of at most 0.1 µM.

Molecule Cc1cnc2c(S(C)(=O)=O)cc(Cc3cc(C(=O)NCc4ccc5c(N)nccc5c4)ccn3)cc2c1 [Example 16, N-((1-aminoisoquinolin-6-yl)methyl)-2-((3-methyl-8-(methylsulfonyl)quinolin-6-yl)methyl)isonicotinamide] has an EC50 of at most 0.1 µM.

Molecule Cc1cnc2c(S(N)(=O)=O)cc(Cc3cc(C(=O)NCc4cnc5[nH]cc(Cl)c5c4)ccn3)cc2c1 [Example 291, N-((3-chloro-1H-pyrrolo[2,3-b]pyridin-5-yl)methyl)-2-((3-methyl-8-sulfamoylquinolin-6-yl)methyl)isonicotinamide] has an EC50 of at most 0.1 µM.

In the case of Nc1nccc2cc(CNC(=O)c3ccnc(Cc4cnc5ccc(F)cc5c4)c3)ccc12 [Example 118, N-((1-aminoisoquinolin-6-yl)methyl)-2-((6-fluoroquinolin-3-yl)methyl)isonicotinamide], the EC50 is reported as at most 0.1 µM.

Cc1cc(N)nc(C)c1CNC(=O)c1ccnc(Cc2cnc3[nH]c(C(F)(F)F)cc3c2)c1 [Example 152, N-((6-amino-2,4-dimethylpyridin-3-yl)methyl)-2-((2-(trifluoromethyl)-1H-pyrrolo[2,3-b]pyridin-5-yl)methyl)isonicotinamide] gave an EC50 of 0.1 to 1 µM.

With CC(C)(O)c1cc(Cc2cc(C(=O)NCc3ccc4c(N)nccc4c3)ccn2)cc2cc(Cl)cnc12 [Example 224, N-((1-aminoisoquinolin-6-yl)methyl)-2-((3-chloro-8-(2-hydroxypropan-2-yl)quinolin-6-yl)methyl)isonicotinamide] the EC50 was at most 0.1 µM.

With Cc1cnc2ccc(Cc3cc(C(=O)NCc4c(C)cc(N)nc4C)ccn3)cc2c1 [Example 144, N-((6-amino-2,4-dimethylpyridin-3-yl)methyl)-2-((3-methylquinolin-6-yl)methyl)isonicotinamide] the EC50 was at most 0.1 µM.

For Nc1nc(C(F)(F)F)n2cc(CNC(=O)c3ccnc(Cc4ccc5ncc(Cl)cc5c4)c3)ccc12 [Example 186, N-((1-amino-3-(trifluoromethyl)imidazo[1,5-a]pyridin-6-yl)methyl)-2-((3-chloroquinolin-6-yl)methyl)isonicotinamide], the EC50 was at most 0.1 µM.

Cc1nc(N)ccc1CNC(=O)c1ccnc(Cc2ccc3ncc(CC(F)F)cc3c2)c1 [Example 279, N-((6-amino-2-methylpyridin-3-yl)methyl)-2-((3-(2,2-difluoroethyl)quinolin-6-yl)methyl)isonicotinamide] gave an EC50 of 0.1 to 1 µM.

For Cc1cnc2c(C#N)cc(Cc3cc(C(=O)NCc4ccc5c(N)nccc5c4)ccn3)cc2c1 [Example 71, N-((1-aminoisoquinolin-6-yl)methyl)-2-((8-cyano-3-methylquinolin-6-yl)methyl)isonicotinamide], the EC50 was at most 0.1 µM.

With Cc1cc(N)nc(C)c1CNC(=O)c1ccnc(Cc2cc(Cl)c3ncc(Cl)cc3c2)c1 [Example 100, N-((6-amino-2,4-dimethylpyridin-3-yl)methyl)-2-((3,8-dichloroquinolin-6-yl)methyl)isonicotinamide] the EC50 was at most 0.1 µM.

Cc1cc2c(N)nccc2cc1CNC(=O)c1ccnc(Cc2ccc3ncc(C(F)(F)F)cc3c2)c1 [Example 183, N-((1-amino-7-methylisoquinolin-6-yl)methyl)-2-((3-(trifluoromethyl)quinolin-6-yl)methyl)isonicotinamide] gave an EC50 of at most 0.1 µM.

With Cc1cc(N)nc(C)c1CNC(=O)c1cc(CC#N)nc(Cc2ccc3ncc(Cl)cc3c2)c1 [Example 213, N-((6-amino-2,4-dimethylpyridin-3-yl)methyl)-2-((3-chloroquinolin-6-yl)methyl)-6-(cyanomethyl)isonicotinamide] the EC50 was at most 0.1 µM.

With Cc1cc2c(N)nccc2cc1CNC(=O)c1ccnc(Cc2ccc3ncc(Cl)cc3c2)c1 [Example 181, N-((1-amino-7-methylisoquinolin-6-yl)methyl)-2-((3-chloroquinolin-6-yl)methyl)isonicotinamide] the EC50 was at most 0.1 µM.

Cc1cnc2c(C#N)cc(Cc3cc(C(=O)NCc4cnc5[nH]cc(Cl)c5c4)ccn3)cc2c1 [Example 73, N-((3-chloro-1H-pyrrolo[2,3-b]pyridin-5-yl)methyl)-2-((8-cyano-3-methylquinolin-6-yl)methyl)isonicotinamide] showed an EC50 of 0.1 to 1 µM.

In the case of Cc1nc(N)ccc1CNC(=O)c1ccnc(Cc2ccc3ncc(Cl)cc3c2)c1 [Example 34, N-((6-amino-2-methylpyridin-3-yl)methyl)-2-((3-chloroquinolin-6-yl)methyl)isonicotinamide], the EC50 is reported as at most 0.1 µM.

With CCc1cnc2ccc(Cc3cc(C(=O)NCc4c(C)cc(N)nc4C)ccn3)cc2c1 [Example 286, N-((6-amino-2,4-dimethylpyridin-3-yl)methyl)-2-((3-ethylquinolin-6-yl)methyl)isonicotinamide] the EC50 was at most 0.1 µM.

Work on Cc1cc(N)nc(C)c1CNC(=O)c1cc(Cc2ccc3ncc(Cl)cc3c2)nc(C(N)=O)c1 [Example 208, N^4-((6-amino-2,4-dimethylpyridin-3-yl)methyl)-6-((3-chloroquinolin-6-yl)methyl)pyridine-2,4-dicarboxamide] yielded an EC50 of at most 0.1 µM.

Cc1cc(N)nc(C)c1CNC(=O)c1ccnc(Cc2ccc3ncc(C(C)C)cc3c2)c1 [Example 254, N-((6-amino-2,4-dimethylpyridin-3-yl)methyl)-2-((3-isopropylquinolin-6-yl)methyl)isonicotinamide] gave an EC50 of at most 0.1 µM.

For Cc1nc(N)ccc1CNC(=O)c1ccnc(Cc2ccc3ncc(C(F)(F)F)cc3c2)c1 [Example 229, N-((6-amino-2-methylpyridin-3-yl)methyl)-2-((3-(trifluoromethyl)quinolin-6-yl)methyl)isonicotinamide], the EC50 was at most 0.1 µM.

Cc1cc(CN)nc(C)c1CNC(=O)c1ccnc(Cc2ccc3ncc(Cl)cc3c2)c1 [Example 171, N-((6-(aminomethyl)-2,4-dimethylpyridin-3-yl)methyl)-2-((3-chloroquinolin-6-yl)methyl)isonicotinamide] showed an EC50 of 0.1 to 1 µM.

For Cc1cnc2c(C(N)=O)cc(Cc3cc(C(=O)NCc4ccc5c(N)nccc5c4)ccn3)cc2c1 [Example 79, 6-((4-(((1-aminoisoquinolin-6-yl)methyl)carbamoyl)pyridin-2-yl)methyl)-3-methylquinoline-8-carboxamide], the EC50 was at most 0.1 µM.

Nc1nccc2cc(CNC(=O)c3ccnc(Cc4ccc5ncc(C(F)(F)F)cc5c4)c3)c(F)cc12 [Example 182, N-((1-amino-7-fluoroisoquinolin-6-yl)methyl)-2-((3-(trifluoromethyl)quinolin-6-yl)methyl)isonicotinamide] showed an EC50 of 0.1 to 1 µM.

With Cc1ccc2cc(Cc3cc(C(=O)NCc4c(C)cc(N)nc4C)ccn3)ccc2n1 [Example 113, N-((6-amino-2,4-dimethylpyridin-3-yl)methyl)-2-((2-methylquinolin-6-yl)methyl)isonicotinamide] the EC50 was at most 0.1 µM.

Molecule Cc1cnc2c(S(N)(=O)=O)cc(Cc3cc(C(=O)NCc4ccc5[nH]cc(Cl)c5c4F)ccn3)cc2c1 [Example 290, N-((3-chloro-4-fluoro-1H-indol-5-yl)methyl)-2-((3-methyl-8-sulfamoylquinolin-6-yl)methyl)isonicotinamide] has an EC50 of 0.1 to 1 µM.

Cc1cc(N)nc(C)c1CNC(=O)c1ccnc(Cc2ccc3c(cc(Cl)c[n+]3[O-])c2)c1 [Example 99, 6-((4-(((6-amino-2,4-dimethylpyridin-3-yl)methyl)carbamoyl)pyridin-2-yl)methyl)-3-chloroquinoline 1-oxide] gave an EC50 of at most 0.1 µM.

For Cc1cc(N)nc(C)c1CNC(=O)c1cc(Cc2ccc3ncc(Cl)cc3c2)nc(C(C)(C)O)c1 [Example 210, N-((6-amino-2,4-dimethylpyridin-3-yl)methyl)-2-((3-chloroquinolin-6-yl)methyl)-6-(2-hydroxypropan-2-yl)isonicotinamide], the EC50 was at most 0.1 µM.

Molecule Cc1nc(N)ccc1CNC(=O)c1ccnc(Cc2cc3cc(Cl)cnc3cn2)c1 [Example 149, N-((6-amino-2-methylpyridin-3-yl)methyl)-2-((3-chloro-1,7-naphthyridin-6-yl)methyl)isonicotinamide] has an EC50 of at most 0.1 µM.

For Cc1cc(N)nc(C)c1CNC(=O)c1ccnc(C(N)c2ccc3ncc(Cl)cc3c2)c1 (stereo not drawn) [Example 276, 2-[Amino-(3-chloro-quinolin-6-yl)-methyl]-N-(6-amino-2,4-dimethyl-pyridin-3-ylmethyl)-isonicotinamide], the EC50 was 0.1 to 1 µM.
